Patent US20090264433A1, “Compounds, Compositions and Methods Comprising Triazine Derivatives” (Institute for OneWorld Health, priority 2008, published 2009)
Counter-ions that a name gives are not always drawn.

What follows are compounds tested against T1, CFTR channel in human colonic T84 cells (Homo sapiens, UniProt P13569) (assay: T84 assay (FLIPR membrane potential dye, forskolin/IBMX-stimulated CFTR)). Settings: average of at least 2 runs unless annotated n = 1.
T1 construct: results in the phosphorylation and opening of CFTR anion channels; host or cells: human colonic T84 cells
Format: cell-based
Procedure, shortened: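 T84 cells (25,000/well, grown overnight) were washed in HBSS with 10 mM Hepes, then loaded with FLIPR Red membrane potential dye for 45 min with or without compound. CFTR was stimulated with 10 μM forskolin plus 100 μM IBMX after a 10 s baseline. Depolarization was tracked as a fluorescence increase, read every second for 150 s.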

T1 sequence (P13569 whole entry): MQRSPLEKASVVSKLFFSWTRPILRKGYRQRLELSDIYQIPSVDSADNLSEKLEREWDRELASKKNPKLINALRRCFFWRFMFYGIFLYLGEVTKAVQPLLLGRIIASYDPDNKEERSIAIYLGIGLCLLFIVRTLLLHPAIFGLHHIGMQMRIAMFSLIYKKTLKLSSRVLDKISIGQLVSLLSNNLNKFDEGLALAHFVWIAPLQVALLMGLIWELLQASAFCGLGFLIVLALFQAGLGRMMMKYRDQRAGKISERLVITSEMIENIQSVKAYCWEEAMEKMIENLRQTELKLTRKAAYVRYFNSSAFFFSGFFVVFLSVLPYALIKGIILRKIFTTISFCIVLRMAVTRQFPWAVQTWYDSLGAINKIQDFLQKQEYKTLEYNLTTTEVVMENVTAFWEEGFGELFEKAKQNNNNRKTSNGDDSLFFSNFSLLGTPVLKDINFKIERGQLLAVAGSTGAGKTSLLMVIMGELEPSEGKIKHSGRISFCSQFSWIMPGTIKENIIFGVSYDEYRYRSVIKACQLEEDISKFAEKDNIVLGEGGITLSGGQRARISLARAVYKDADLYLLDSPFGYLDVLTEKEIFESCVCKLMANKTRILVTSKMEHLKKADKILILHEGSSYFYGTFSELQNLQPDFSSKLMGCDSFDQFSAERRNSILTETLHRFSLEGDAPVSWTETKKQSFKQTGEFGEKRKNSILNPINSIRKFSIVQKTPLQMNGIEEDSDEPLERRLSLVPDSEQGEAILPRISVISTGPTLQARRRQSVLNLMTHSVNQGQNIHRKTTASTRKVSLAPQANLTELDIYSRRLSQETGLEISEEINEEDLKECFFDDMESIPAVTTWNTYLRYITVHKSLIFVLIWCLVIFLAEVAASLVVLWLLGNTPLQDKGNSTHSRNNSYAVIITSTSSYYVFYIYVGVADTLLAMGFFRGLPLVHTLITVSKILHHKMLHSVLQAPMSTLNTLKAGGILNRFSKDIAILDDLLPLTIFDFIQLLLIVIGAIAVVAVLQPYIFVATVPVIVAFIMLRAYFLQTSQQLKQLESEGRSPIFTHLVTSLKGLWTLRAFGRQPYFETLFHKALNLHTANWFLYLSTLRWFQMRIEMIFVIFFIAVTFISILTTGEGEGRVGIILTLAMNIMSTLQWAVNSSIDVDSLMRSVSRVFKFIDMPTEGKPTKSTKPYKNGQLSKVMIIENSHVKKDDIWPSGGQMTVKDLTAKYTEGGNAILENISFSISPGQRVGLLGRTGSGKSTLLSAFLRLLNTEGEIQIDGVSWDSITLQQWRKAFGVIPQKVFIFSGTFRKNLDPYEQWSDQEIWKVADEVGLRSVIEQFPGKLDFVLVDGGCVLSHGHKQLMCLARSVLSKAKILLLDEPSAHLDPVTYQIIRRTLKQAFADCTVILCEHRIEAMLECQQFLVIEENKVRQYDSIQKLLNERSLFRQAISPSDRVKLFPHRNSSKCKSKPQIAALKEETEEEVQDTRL

Row | IC50 [µM] | SMILES
1 | 4.18 | CN(Cc1ccc(COc2ncc(-c3cc(Cl)c(O)c(Cl)c3)nn2)cc1)Cc1cccc(-c2ncccn2)c1 [Compound 205, 2,6-dichloro-4-(3-(4-((methyl(3-(pyrimidin-2-yl)benzyl)amino)methyl)benzyl-oxy)-1,2,4-triazin-6-yl)phenol]
2 | 9.6 | CN(Cc1ccc(COc2ncc(-c3cc(Cl)c(O)c(Cl)c3)nn2)cc1)Cc1cccc(-c2cncnc2)c1 [Compound 206, 2,6-dichloro-4-(3-(4-((methyl(3-(pyrimidin-5-yl)benzyl)amino)methyl)benzyl-oxy)-1,2,4-triazin-6-yl)phenol]
3 | 2.99 | CN(Cc1ccc(COc2ncc(-c3cc(Cl)c(O)c(Cl)c3)nn2)cc1)Cc1ccc(-c2cncnc2)cc1 [Compound 207, 2,6-dichloro-4-(3-(4-((methyl(4-(pyrimidin-5-yl)benzyl)amino)methyl)benzyl-oxy)-1,2,4-triazin-6-yl)phenol]
4 | 8.24 | CN(Cc1ccc(COc2ncc(-c3cc(Cl)c(O)c(Cl)c3)nn2)cc1)Cc1ccc(CN2CCCCC2)cc1 [Compound 208, 2,6-dichloro-4-(3-(4-((methyl(4-(piperidin-1-ylmethyl)benzyl)amino)methyl)benzyloxy)-1,2,4-triazin-6-yl)phenol, formate salt]
5 | 4.8 | Cc1cncc(Oc2ccc(CN(C)Cc3ccc(COc4ncc(-c5cc(Cl)c(O)c(Cl)c5)nn4)cc3)cc2)n1 [Compound 209, 2,6-dichloro-4-(3-(4-((methyl(4-(6-methylpyrazin-2-yloxy)benzyl)amino)methyl)benzyloxy)-1,2,4-triazin-6-yl)phenol]
6 | 6.42 | CN(Cc1ccc(COc2ncc(-c3cc(Cl)c(O)c(Cl)c3)nn2)cc1)Cc1ccc(-c2ccc(C(F)(F)F)cn2)cc1 [Compound 210, 2,6-dichloro-4-(3-(4-((methyl(4-(5-(trifluoromethyl)pyridin-2-yl)benzyl)amino)methyl)benzyloxy)-1,2,4-triazin-6-yl)phenol]
7 | 8.04 | CN(Cc1ccc(COc2ncc(-c3cc(Cl)c(O)c(Cl)c3)nn2)cc1)Cc1ccc(CN2CCCC2)cc1 [Compound 211, 2,6-dichloro-4-(3-(4-((methyl(4-(pyrrolidin-1-ylmethyl)benzyl)amino)methyl)benzyloxy)-1,2,4-triazin-6-yl)phenol, diformate salt]
8 | 4.9 | CN(Cc1ccc(COc2ncc(-c3cc(Cl)c(O)c(Cl)c3)nn2)cc1)Cc1cccc(CN2CCCC2)c1 [Compound 212, 2,6-dichloro-4-(3-(4-((methyl(3-(pyrrolidin-1-ylmethyl)benzyl)amino)methyl)benzyloxy)-1,2,4-triazin-6-yl)phenol, formate salt]
9 | 4.31 | CN(Cc1ccc(COc2ncc(-c3cc(Cl)c(O)c(Cl)c3)nn2)cc1)Cc1cccc(-c2cccnc2)c1 [Compound 213, 2,6-dichloro-4-(3-(4-((methyl(3-(pyridin-3-yl)benzyl)amino)methyl)benzyl-oxy)-1,2,4-triazin-6-yl)phenol]
10 | 5.19 | CN(Cc1ccc(COc2ncc(-c3cc(Cl)c(O)c(Cl)c3)nn2)cc1)Cc1ccc(OCCN2CCOCC2)cc1 [Compound 214, 2,6-dichloro-4-(3-(4-((methyl(4-(2-morpholinoethoxy)benzyl)amino)methyl)benzyloxy)-1,2,4-triazin-6-yl)phenol]
11 | 4.54 | OCCN(Cc1ccc(COc2ncc(-c3cc(Cl)c(O)c(Cl)c3)nn2)cc1)Cc1cccc(Cl)c1Cl [Compound 215, 2,6-dichloro-4-(3-(4-(((2,3-dichlorobenzyl)(2-hydroxyethyl)amino)methyl)benzyloxy)-1,2,4-triazin-6-yl)phenol]
12 | 23.2 | CC(=O)N1CCN(Cc2ccc(COc3ncc(-c4cc(Cl)c(O)c(Cl)c4)nn3)cc2)CC1 [Compound 216, 1-(4-(4-((6-(3,5-dichloro-4-hydroxyphenyl)-1,2,4-triazin-3-yloxy)methyl)benzyl)piperazin-1-yl)ethanone]
13 | 4.47 | O=C(c1ccco1)N1CCN(Cc2ccc(COc3ncc(-c4cc(Cl)c(O)c(Cl)c4)nn3)cc2)CC1 [Compound 217, (4-(4-((6-(3,5-dichloro-4-hydroxyphenyl)-1,2,4-triazin-3-yloxy)methyl)benzyl)piperazin-1-yl)(furan-2-yl)methanone]
14 | 3.8 | O=C(c1ccccc1)N1CCN(Cc2ccc(COc3ncc(-c4cc(Cl)c(O)c(Cl)c4)nn3)cc2)CC1 [Compound 218, (4-(4-((6-(3,5-dichloro-4-hydroxyphenyl)-1,2,4-triazin-3-yloxy)methyl)benzyl)piperazin-1-yl)(phenyl)methanone]
15 | 12.4 | O=C(C1CC1)N1CCN(Cc2ccc(COc3ncc(-c4cc(Cl)c(O)c(Cl)c4)nn3)cc2)CC1 [Compound 219, cyclopropyl(4-(4-((6-(3,5-dichloro-4-hydroxyphenyl)-1,2,4-triazin-3-yloxy)methyl)benzyl)piperazin1-yl)methanone]
16 | 1.89 | O=C(c1ccccc1Cl)N1CCN(Cc2ccc(COc3ncc(-c4cc(Cl)c(O)c(Cl)c4)nn3)cc2)CC1 [Compound 220, (2-chlorophenyl)(4-(4-((6-(3,5-dichloro-4-hydroxyphenyl)-1,2,4-triazin-3-yloxy)methyl)benzyl)piperazin1-yl)methanone]
17 | 17.4 | CCC(=O)N1CCN(Cc2ccc(COc3ncc(-c4cc(Cl)c(O)c(Cl)c4)nn3)cc2)CC1 [Compound 221, 1-(4-(4-((6-(3,5-dichloro-4-hydroxyphenyl)-1,2,4-triazin-3-yloxy)methyl)benzyl)piperazin-1-yl)propan-1-one]
18 | 11.2 | CN(Cc1ccc(COc2ncc(-c3cc(Cl)c(O)c(Cl)c3)nn2)cc1)Cc1cccnc1 [Compound 222, 2,6-dichloro-4-(3-(4-((methyl(pyridin-3-ylmethyl)amino)methyl)benzyl-oxy)-1,2,4-triazin-6-yl)phenol]
19 | 3.55 | OCCN(Cc1ccc(COc2ncc(-c3cc(Cl)c(O)c(Cl)c3)nn2)cc1)Cc1cccc(OCc2ccccc2Cl)c1 [Compound 223, 2,6-dichloro-4-(3-(4-(((3-(2-chlorobenzyloxy)benzyl)(2-hydroxyethyl)amino)methyl)benzyloxy)-1,2,4-triazin-6-yl)phenol]
20 | 11.8 | O=C(c1cccnc1)N1CCN(Cc2ccc(COc3ncc(-c4cc(Cl)c(O)c(Cl)c4)nn3)cc2)CC1 [Compound 224, (4-(4-((6-(3,5-dichloro-4-hydroxyphenyl)-1,2,4-triazin-3-yloxy)methyl)benzyl)piperazin-1-yl)(pyridin-3-yl)methanone]

Row | SMILES | IC50 [µM]
21 | Cc1csc(CC(=O)N2CCN(Cc3ccc(COc4ncc(-c5cc(Cl)c(O)c(Cl)c5)nn4)cc3)CC2)n1 [Compound 225, 1-(4-(4-((6-(3,5-dichloro-4-hydroxyphenyl)-1,2,4-triazin-3-yloxy)methyl)benzyl)piperazin-1-yl)-2-(4-methylthiazol-2-yl)ethanone] | 11.1
